Reference: ChEMBL document CHEMBL4665709, “Rational Avoidance of Protease Cleavage Sites and Symmetrical End-Tagging Significantly Enhances the Stability and Therapeutic Potential of Antimicrobial Peptides” (J Med Chem, 2020)
≈ marks a conversion by molar mass, not a printed value. Calls of active or inactive are those of the source. No cut-off for these calls is given here.

Tests used:
[1] = Therapeutic index, ratio of MHC for human RBC to geometric mean of peptide MIC for Streptococcus agalactiae H92; assay type: toxicity; settings: human red blood cells (RBC), read-out: TI
[2] = Therapeutic index, ratio of MHC for human RBC to geometric mean of peptide MIC for Staphylococcus epidermidis ATCC 12228; assay type: toxicity; settings: human red blood cells (RBC), read-out: TI
[3] = Therapeutic index, ratio of MHC for human RBC to geometric mean of peptide MIC for methicillin-resistant Staphylococcus aureus 43300; assay type: toxicity; settings: human red blood cells (RBC), read-out: TI
[4] = Therapeutic index, ratio of MHC for human RBC to geometric mean of peptide MIC for Enterococcus faecalis ATCC 29212; assay type: toxicity; settings: human red blood cells (RBC), read-out: TI
[5] = Therapeutic index, ratio of MHC for human RBC to geometric mean of peptide MIC for Staphylococcus aureus ATCC 29213; assay type: toxicity; settings: human red blood cells (RBC), read-out: TI
[6] = Therapeutic index, ratio of MHC for human RBC to geometric mean of peptide MIC for Staphylococcus aureus 11011; assay type: toxicity; settings: human red blood cells (RBC), read-out: TI
[7] = Therapeutic index, ratio of MHC for human RBC to geometric mean of peptide MIC for Salmonella pullorum 7913; assay type: toxicity; settings: human red blood cells (RBC), read-out: TI
[8] = Therapeutic index, ratio of MHC for human RBC to geometric mean of peptide MIC for Salmonella typhimurium 7731; assay type: toxicity; settings: human red blood cells (RBC), read-out: TI
[9] = Therapeutic index, ratio of MHC for human RBC to geometric mean of peptide MIC for Salmonella choleraesuis 503; assay type: toxicity; settings: human red blood cells (RBC), read-out: TI
[10] = Therapeutic index, ratio of MHC for human RBC to geometric mean of peptide MIC for Escherichia coli UB1005; assay type: toxicity; settings: human red blood cells (RBC), read-out: TI
[11] = Therapeutic index, ratio of MHC for human RBC to geometric mean of peptide MIC for Salmonella typhimurium 14028; assay type: toxicity; settings: human red blood cells (RBC), read-out: TI
[12] = Therapeutic index, ratio of MHC for human RBC to geometric mean of peptide MIC for Escherichia coli ATCC 25922; assay type: toxicity; settings: human red blood cells (RBC), read-out: TI
[13] = Antibacterial activity against Salmonella pullorum 7913 after 18 to 24 hrs by CLSI-based broth microdilution method; assay type: functional, Salmonella enterica subsp. enterica serovar Pullorum; settings: Salmonella enterica, time hrs 18-24
Salmonella enterica = assay: Antibacterial activity against Salmonella choleraesuis 503 after 18 to 24 hrs by CLSI-based broth microdilution method; assay type: functional; settings: time hrs 18-24
Enterococcus faecalis = assay: Antibacterial activity against Enterococcus faecalis ATCC 29212 after 18 to 24 hrs by CLSI-based broth microdilution method; assay type: functional; settings: time hrs 18-24
Streptococcus agalactiae = assay: Antibacterial activity against Streptococcus agalactiae H92 after 18 to 24 hrs by CLSI-based broth microdilution method; assay type: functional; settings: time hrs 18-24
Erythrocyte = assay: Hemolytic activity in human RBC assessed as hemolysis; assay type: ADME, cell-based
[14] = Hemolytic activity in human RBC assessed as hemolysis at 1 to 128 uM relative to control; assay type: ADME, cell-based, Erythrocyte; settings: human red blood cells (RBC), dose 1-128 µM, read-out: Activity
[15] = Hemolytic activity in human RBC assessed as hemolysis at 1 uM relative to control; assay type: ADME, cell-based, Erythrocyte; settings: human red blood cells (RBC), read-out: Activity
RAW264.7 = assay: Cytotoxicity against mouse RAW264.7 cells assessed as reduction in cell viability lower concentration by MTT assay; assay type: cell-based
HEK-293T = assay: Cytotoxicity against HEK-293T cells assessed as reduction in cell viability at lower concentration by MTT assay; assay type: cell-based; settings: human
[16] = Stability of compound at 100 degreeC after 30 to 90 mins; assay type: physicochemical; settings: time 30-90 min
Escherichia coli [17] = assay: Antibacterial activity against Escherichia coli ATCC 25922 measured after 18 to 24 hrs in presence of trypsin by CLSI-based broth microdilution method; assay type: functional, organism-based; settings: time hrs 18-24
Escherichia coli [18] = assay: Antibacterial activity against Escherichia coli ATCC 25922 measured after 18 to 24 hrs in presence of chymotrypsin by CLSI-based broth microdilution method; assay type: functional, organism-based; settings: time hrs 18-24
Escherichia coli [19] = assay: Antibacterial activity against Escherichia coli ATCC 25922 measured after 18 to 24 hrs in presence of pepsin by CLSI-based broth microdilution method; assay type: functional, organism-based; settings: time hrs 18-24
Escherichia coli [20] = assay: Antibacterial activity against Escherichia coli ATCC 25922 measured after 18 to 24 hrs in presence of proteinase K by CLSI-based broth microdilution method; assay type: functional, organism-based; settings: time hrs 18-24
Staphylococcus aureus [21] = assay: Antibacterial activity against Staphylococcus aureus 29213 with 0.0625-2 mg/mL trypsin for 1 hr followed by test compound addition measured after 4 to 8 hrs by CLSI-based broth microdilution method; assay type: functional, organism-based; settings: time hrs 4-8
Staphylococcus aureus [22] = assay: Antibacterial activity against Staphylococcus aureus 29213 with 0.0625-2 mg/mL chymotrypsin for 1 hr followed by test compound addition measured after 4 to 8 hrs by CLSI-based broth microdilution method; assay type: functional, organism-based; settings: time hrs 4-8
Staphylococcus aureus [23] = assay: Antibacterial activity against Staphylococcus aureus 29213 with 0.0625-2 mg/mL pepsin for 1 hr followed by test compound addition measured after 4 to 8 hrs by CLSI-based broth microdilution method; assay type: functional, organism-based; settings: time hrs 4-8
Staphylococcus aureus [24] = assay: Antibacterial activity against Staphylococcus aureus 29213 with 0.0625-2 mg/mL proteinase K for 1 hr followed by test compound addition measured after 4 to 8 hrs by CLSI-based broth microdilution method; assay type: functional, organism-based; settings: time hrs 4-8
Trypsin [25] = molecular target: T1, Trypsin (Homo sapiens, UniProt P07477+P07478+P35030); assay: Stability of compound assessed as trypsin (unknown origin)-mediated drug degradation after 1 hr by RP-HPLC analysis; assay type: ADME, protein assay
[26] = Stability of compound assessed as chymotrypsin (unknown origin)-mediated drug degradation after 1 hr by RP-HPLC analysis; assay type: ADME; settings: human
[27] = Stability of compound assessed as pepsin (unknown origin)-mediated drug degradation after 1 hr by RP-HPLC analysis; assay type: ADME; settings: human
[28] = Stability of compound assessed as proteinase K (unknown origin)-mediated drug degradation after 1 hr by RP-HPLC analysis; assay type: ADME; settings: human
Trypsin [29] = molecular target: T1, Trypsin; assay: Stability of compound assessed as trypsin (unknown origin)-mediated drug degradation after 1 hr by SDS-PAGE analysis; assay type: ADME, protein assay
[30] = Stability of compound assessed as chymotrypsin (unknown origin)-mediated drug degradation after 1 hr by SDS-PAGE analysis; assay type: ADME; settings: human
[31] = Stability of compound assessed as pepsin (unknown origin)-mediated drug degradation after 1 hr by SDS-PAGE analysis; assay type: ADME; settings: human
[32] = Stability of compound assessed as proteinase K (unknown origin)-mediated drug degradation after 1 hr by SDS-PAGE analysis; assay type: ADME; settings: human
Cell membrane = assay: Induction of outer membrane permeabilization in Escherichia coli ATCC 25922 after 30 mins by NPN-dye based assay

CC[C@H](C)[C@H](NC(=O)CN)C(=O)NCC(=O)N[C@@H](C)C(=O)N[C@H](C(=O)N[C@@H](CC(C)C)C(=O)N[C@@H](CCCCN)C(=O)N[C@H](C(=O)N[C@@H](CC(C)C)C(=O)N[C@H](C(=O)N[C@H](C(=O)NCC(=O)N[C@@H](CC(C)C)C(=O)N1CCC[C@H]1C(=O)N[C@@H](C)C(=O)N[C@@H](CC(C)C)C(=O)N[C@H](C(=O)N[C@@H](CO)C(=O)N[C@@H](Cc1c[nH]c2ccccc12)C(=O)N[C@H](C(=O)N[C@@H](CCCCN)C(=O)N[C@@H](CCCNC(=N)N)C(=O)N[C@@H](CCCCN)C(=O)N[C@@H](CCCNC(=N)N)C(=O)N[C@@H](CCC(N)=O)C(=O)N[C@@H](CCC(N)=O)C(N)=O)[C@@H](C)CC)[C@@H](C)CC)[C@@H](C)O)[C@@H](C)O)C(C)C)C(C)C [MELITTIN]
selectivity ratio [1]: 0.56
selectivity ratio [2]: 0.56
selectivity ratio [3]: 0.56
selectivity ratio [4]: 0.56
selectivity ratio [5]: 0.56
selectivity ratio [6]: 0.56
selectivity ratio [7]: 0.4
selectivity ratio [8]: 0.4
selectivity ratio [9]: 0.4
selectivity ratio [10]: 0.4
selectivity ratio [11]: 0.4
selectivity ratio [12]: 0.4
MIC [13]: 4 µM (≈ 11.4 µg/mL)
MIC (Salmonella enterica): 4 µM (≈ 11.4 µg/mL)
MIC (Enterococcus faecalis): 2 µM (≈ 5.69 µg/mL)
MIC (Streptococcus agalactiae): 1 µM (≈ 2.85 µg/mL)
MHC (Erythrocyte): 1 µM
hemolysis at up to 128 µM [14]: < 5%
hemolysis at 1 µM [15]: 10.1%
Activity (RAW264.7): Toxic
Activity (HEK-293T): Toxic
Stabilty [16]: Stable
Activity (Escherichia coli [17]): inactive
Activity (Escherichia coli [18]): inactive
Activity (Escherichia coli [19]): inactive
Activity (Escherichia coli [20]): inactive
Activity (Staphylococcus aureus [21]): inactive
Activity (Staphylococcus aureus [22]): inactive
Activity (Staphylococcus aureus [23]): inactive
Activity (Staphylococcus aureus [24]): inactive
Stabilty (Trypsin [25]): Unstable
Stabilty [26]: Unstable
Stabilty [27]: Unstable
Stabilty [28]: Unstable
Stabilty (Trypsin [29]): Unstable
Stabilty [30]: Unstable
Stabilty [31]: Unstable
Stabilty [32]: Unstable
Activity (Cell membrane): Dose-dependent effect
